Test results from US6875886B2, “Modified PSMA ligands and uses related thereto” (Beth Israel Deaconess Medical Center, Inc., priority 2001, dated 2005).
Where a SMILES comes first, the peptide text is derived from it.

Key:
[1] = target: PSMA (Homo sapiens, UniProt Q04609); experiment: 3H-NAAG assay of PSMA enzymatic activity; type: biochemical
Description: To determine the effects of several PSMA ligands and modified PSMA ligands (β-AG/78) on PSMA activity, ^3H-NAAG assay (Slusher et al., J. Biol. Chem., 1990, 265: 21297-301) was used to measure the activity of PSMA at the presence or absence of several PSMA ligands.
β-AG/78 (FIG. 5, bottom panel) is a conjugate of β-AG and the near-infrared fluorophore IRDye78. The conjugate can be synthesized using a similar scheme as shown in Example 1, and the product can be purified using either TLC (not shown) or HPLC, as shown in FIG. 6. As a control, IRDye78 was also tested. The results were shown as percentage of remaining PSMA activity as compared to PSMA activity without any additives, over a range of inhibitor concentrations.

[2] = test system: NAALADase; conditions: NAALADase with NAAG as substrate; cited from earlier work

Sequence of PSMA (Q04609 whole entry): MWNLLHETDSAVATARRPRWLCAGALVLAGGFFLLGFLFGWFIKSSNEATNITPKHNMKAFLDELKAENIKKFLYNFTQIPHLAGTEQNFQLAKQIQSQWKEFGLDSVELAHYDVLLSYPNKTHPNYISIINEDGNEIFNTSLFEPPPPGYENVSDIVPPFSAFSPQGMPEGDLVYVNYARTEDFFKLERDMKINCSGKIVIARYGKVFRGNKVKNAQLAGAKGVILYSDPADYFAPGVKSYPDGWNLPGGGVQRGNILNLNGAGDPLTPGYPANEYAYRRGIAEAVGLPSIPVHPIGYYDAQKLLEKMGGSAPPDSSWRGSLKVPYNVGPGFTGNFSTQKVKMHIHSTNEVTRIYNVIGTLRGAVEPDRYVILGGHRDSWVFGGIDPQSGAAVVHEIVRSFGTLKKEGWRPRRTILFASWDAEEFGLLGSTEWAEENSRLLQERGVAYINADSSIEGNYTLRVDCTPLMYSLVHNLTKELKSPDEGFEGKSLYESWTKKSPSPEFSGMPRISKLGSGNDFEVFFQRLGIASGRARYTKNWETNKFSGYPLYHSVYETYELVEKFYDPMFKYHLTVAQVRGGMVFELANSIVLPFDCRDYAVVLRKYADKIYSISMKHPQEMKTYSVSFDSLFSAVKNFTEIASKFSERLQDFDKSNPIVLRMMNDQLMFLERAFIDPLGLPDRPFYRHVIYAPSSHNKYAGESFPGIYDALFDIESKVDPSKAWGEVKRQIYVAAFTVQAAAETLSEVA

For `N[C@@H](CC(=O)N[C@@H](CCC(=O)O)C(=O)O)C(=O)O` [β-AG, β-Asp-Glu], the “inhibitory potency relative to comparator” value ([1]; comparison of inhibition curves) was “slightly less potent than that of beta-N-acetyl-AG (β-NAAG)” and the “inhibition of PSMA enzymatic activity” value ([1]; percentage of remaining PSMA activity over a range of inhibitor concentrations) was “is indeed an inhibitor of PSMA enzymatic activity”.

In the case of `CC(=O)N[C@@H](CC(=O)O)C(=O)N[C@@H](CCC(=O)O)C(=O)O` [NAAG, N-acetyl-aspartyl-glutamate] (Ac-Asp-Glu-OH), the Km [2] is listed as 0.54 µM.
